Here are results for 1 compound from ChEMBL document CHEMBL3526000 (Drug Metab Dispos, 2012).

Series [1] concerns the target T1, UDP-glucuronosyltransferase 1A1 (Homo sapiens, UniProt P22309).
T1 sequence (P22309 whole entry): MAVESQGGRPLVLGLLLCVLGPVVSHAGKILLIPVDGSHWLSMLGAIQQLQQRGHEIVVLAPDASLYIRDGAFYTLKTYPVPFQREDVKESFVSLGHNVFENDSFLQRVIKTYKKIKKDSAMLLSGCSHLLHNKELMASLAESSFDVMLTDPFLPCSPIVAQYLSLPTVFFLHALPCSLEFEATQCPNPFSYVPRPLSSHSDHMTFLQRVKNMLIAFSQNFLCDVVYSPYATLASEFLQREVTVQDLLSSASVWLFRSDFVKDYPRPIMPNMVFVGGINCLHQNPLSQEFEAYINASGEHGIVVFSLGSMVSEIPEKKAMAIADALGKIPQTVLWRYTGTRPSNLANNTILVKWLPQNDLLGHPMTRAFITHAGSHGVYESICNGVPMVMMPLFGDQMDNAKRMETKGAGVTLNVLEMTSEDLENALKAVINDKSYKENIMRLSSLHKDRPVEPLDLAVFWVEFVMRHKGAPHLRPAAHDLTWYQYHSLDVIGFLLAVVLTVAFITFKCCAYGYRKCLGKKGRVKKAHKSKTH
Description: Drug metabolism assessed as recombinant human UGT1A1 assessed as N-glucuronidation at 100 uM incubated for 60 mins by LC-MS/MS analysis. Format: ADME. The settings on record: recombinant enzyme, 1 h.

A further series concerns the target T2, UGT1A4 (Homo sapiens, UniProt P22310).
T2 sequence (P22310 whole entry): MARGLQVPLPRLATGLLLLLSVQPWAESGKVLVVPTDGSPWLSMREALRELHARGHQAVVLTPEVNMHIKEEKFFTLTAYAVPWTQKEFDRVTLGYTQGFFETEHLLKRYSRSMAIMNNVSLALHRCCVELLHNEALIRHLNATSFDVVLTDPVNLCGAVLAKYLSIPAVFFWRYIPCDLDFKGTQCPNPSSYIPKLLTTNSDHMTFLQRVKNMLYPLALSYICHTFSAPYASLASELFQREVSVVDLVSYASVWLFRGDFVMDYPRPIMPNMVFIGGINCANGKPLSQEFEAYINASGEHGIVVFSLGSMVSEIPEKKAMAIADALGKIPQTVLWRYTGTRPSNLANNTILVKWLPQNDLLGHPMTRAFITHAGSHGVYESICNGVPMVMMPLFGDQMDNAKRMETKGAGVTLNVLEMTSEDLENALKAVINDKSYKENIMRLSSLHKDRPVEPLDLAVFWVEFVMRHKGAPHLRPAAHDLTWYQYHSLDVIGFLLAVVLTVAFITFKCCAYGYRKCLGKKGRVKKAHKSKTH
Nature of the series: Drug metabolism assessed as recombinant human UGT1A4 assessed as O-glucuronidation at 10 to 400 uM incubated for 60 mins by LC-MS/MS analysis.

The target in series [2] is T3, UDP-glucuronosyltransferase 1A6 (Homo sapiens, UniProt P19224).
T3 sequence (P19224 whole entry): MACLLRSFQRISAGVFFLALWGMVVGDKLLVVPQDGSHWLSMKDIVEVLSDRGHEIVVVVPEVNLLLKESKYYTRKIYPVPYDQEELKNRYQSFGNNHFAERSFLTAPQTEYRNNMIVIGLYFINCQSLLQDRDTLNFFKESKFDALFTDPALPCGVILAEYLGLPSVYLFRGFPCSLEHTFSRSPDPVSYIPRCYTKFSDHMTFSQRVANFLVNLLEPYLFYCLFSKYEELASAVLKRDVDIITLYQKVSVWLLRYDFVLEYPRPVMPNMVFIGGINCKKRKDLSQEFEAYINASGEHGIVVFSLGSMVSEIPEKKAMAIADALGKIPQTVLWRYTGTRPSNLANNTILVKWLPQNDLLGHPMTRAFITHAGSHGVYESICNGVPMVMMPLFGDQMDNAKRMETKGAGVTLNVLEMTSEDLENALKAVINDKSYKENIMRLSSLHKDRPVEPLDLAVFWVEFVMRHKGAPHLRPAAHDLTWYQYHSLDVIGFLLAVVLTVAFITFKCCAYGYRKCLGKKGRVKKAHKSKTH
Description: Drug metabolism assessed as recombinant human UGT1A6 assessed as O-glucuronidation at 100 uM incubated for 60 mins by LC-MS/MS analysis. Format: ADME. The settings on record: recombinant enzyme, 1 h.

Series [3] deals with T4, UDP-glucuronosyltransferase 2B17 (Homo sapiens, UniProt O75795).
T4 sequence (O75795 whole entry): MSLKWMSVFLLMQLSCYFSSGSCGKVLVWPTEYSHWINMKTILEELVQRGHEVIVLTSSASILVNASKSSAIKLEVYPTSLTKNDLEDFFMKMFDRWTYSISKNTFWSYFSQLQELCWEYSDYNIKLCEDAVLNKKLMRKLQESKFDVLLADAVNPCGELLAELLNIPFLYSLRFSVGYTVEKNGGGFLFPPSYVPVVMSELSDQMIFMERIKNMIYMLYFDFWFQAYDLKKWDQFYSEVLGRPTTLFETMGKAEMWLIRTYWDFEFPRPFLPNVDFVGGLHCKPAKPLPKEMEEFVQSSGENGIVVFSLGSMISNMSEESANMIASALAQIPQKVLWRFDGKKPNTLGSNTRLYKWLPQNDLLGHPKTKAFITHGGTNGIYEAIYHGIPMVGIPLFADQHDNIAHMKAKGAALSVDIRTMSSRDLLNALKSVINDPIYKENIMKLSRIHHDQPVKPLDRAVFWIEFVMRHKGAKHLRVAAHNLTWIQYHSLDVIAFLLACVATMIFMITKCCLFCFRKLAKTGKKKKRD
Description: Drug metabolism assessed as recombinant human UGT2B17 assessed as N-glucuronidation at 100 uM incubated for 60 mins by LC-MS/MS analysis. The class given is ADME. The settings on record: recombinant enzyme, 1 h.

The target in series [4] is T5, UDP-glucuronosyltransferase 1A8 (Homo sapiens, UniProt Q9HAW9).
T5 sequence (Q9HAW9 whole entry): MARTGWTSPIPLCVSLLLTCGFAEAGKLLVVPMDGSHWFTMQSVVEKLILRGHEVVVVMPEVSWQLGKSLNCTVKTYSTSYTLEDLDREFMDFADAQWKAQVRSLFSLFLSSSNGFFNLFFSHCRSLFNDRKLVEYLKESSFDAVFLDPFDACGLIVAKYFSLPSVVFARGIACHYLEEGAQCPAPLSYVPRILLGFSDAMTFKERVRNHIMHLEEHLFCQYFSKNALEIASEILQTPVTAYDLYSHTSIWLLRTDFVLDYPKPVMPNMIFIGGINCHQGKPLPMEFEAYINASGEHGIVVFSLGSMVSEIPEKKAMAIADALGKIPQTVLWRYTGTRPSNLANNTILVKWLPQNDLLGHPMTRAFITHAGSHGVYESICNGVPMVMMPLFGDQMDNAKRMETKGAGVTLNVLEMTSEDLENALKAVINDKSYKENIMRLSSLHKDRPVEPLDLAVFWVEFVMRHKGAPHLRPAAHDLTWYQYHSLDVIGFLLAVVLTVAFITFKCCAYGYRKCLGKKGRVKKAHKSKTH
Description: Drug metabolism assessed as recombinant human UGT1A8 assessed as O-glucuronidation at 100 uM incubated for 60 mins by LC-MS/MS analysis. The settings on record: recombinant enzyme, 1 h. Format: ADME.

Structures are written as SMILES.

A word on the Km: it is the concentration of substrate that gives half-maximal velocity. Regarding `O=C(CCCN1CCC(O)(c2ccc(Cl)cc2)CC1)c1ccc(F)cc1` [HALOPERIDOL], the Drug metabolism result in series [1], in series [2], in series [3] and in series [4] was “metabolite_not_detected” throughout. Besides, the Km at 1 h, 400 µM on UGT1A4 is 64 µM.
